Results: ChEMBL document CHEMBL4052645, “Discovery of potent and efficacious pyrrolopyridazines as dual JAK1/3 inhibitors” (Bioorg Med Chem Lett, 2017)
pEC50, pIC50: −log10 of the molar value. Calls of active or inactive are those of the source. No cut-off for these calls is given here.

Columns and labels:
Mus musculus [1] = organism: Mus musculus; experiment: Clearance of compound in mouse relative to hepatic blood flow; type: ADME; conditions: in vivo
[2] = Clearance of compound in mouse; type: ADME, organism-based; conditions: in vivo
Mus musculus [3] = experiment: Antiarthritic activity in collagen-induced mouse model assessed as […] at 10 mg/kg, po qd up to 41 days; type: functional, organism-based
Mus musculus [4] = experiment: Antiarthritic activity in collagen-induced mouse model assessed as […] at 2 mg/kg, po qd up to 41 days; type: functional, organism-based
Mus musculus [5] = experiment: Toxicity in collagen-induced arthritis mouse model at 50 mg/kg, po qd; type: organism-based; conditions: in vivo
[6] = molecular target: Mitogen-activated protein kinase 11 (Homo sapiens) (UniProt Q15759); experiment: Inhibition of wild-type human full length p38-beta (M1 to Q364 residues) expressed in bacterial expression system assessed as residual activity at 50 nM by Kinomescan method relative to control
[7] = test system: Phosphatidylinositol 4,5-bisphosphate 3-kinase catalytic subunit alpha isoform (Homo sapiens), P42336 [H1047L]; experiment: Inhibition of human partial length PIK3CA H1047L mutant (R108 to N1068 residues) expressed in mammalian expression system assessed as residual activity at 50 nM by Kinomescan method relative to control
[8] = molecular target: SNF-related serine/threonine-protein kinase (Homo sapiens) (UniProt Q9NRH2); experiment: Inhibition of wild-type human partial length SNRK (M1 to E339 residues) expressed in mammalian expression system assessed as residual activity at 50 nM by Kinomescan method relative to control
[9] = molecular target: Serine/threonine-protein kinase 33 (Homo sapiens) (UniProt Q9BYT3); experiment: Inhibition of wild-type human full length STK33 (M1 to L514 residues) expressed in bacterial expression system assessed as residual activity at 50 nM by Kinomescan method relative to control
[10] = Selectivity ratio of IC50 for JAK2 dependent EPO-induced STAT5A phosphorylation in human TF1 cells to IC50 for JAK1/JAK3 dependent IL2-induced STAT3 phosphorylation in human PBMC derived T-cells
[11] = molecular target: T1, Voltage-gated inwardly rectifying potassium channel KCNH2 (Homo sapiens, UniProt Q12809); experiment: Inhibition of human ERG by patch clamp method
[12] = molecular target: T1, Voltage-gated inwardly rectifying potassium channel KCNH2; experiment: Inhibition of human ERG by flux-based assay
[13] = Metabolic stability in mouse liver microsomes assessed as compound remaining after 10 mins; type: ADME, microsome; conditions: read-out: Stability
[14] = Cmax in mouse at 10 mg/kg, po after 24 hrs; type: ADME, organism-based; set-up: dose 10 mg/kg, route oral; conditions: in vivo
[15] = molecular target: Nuclear receptor subfamily 1 group I member 2 (Homo sapiens, UniProt O75469); experiment: Activation of PXR (unknown origin); type: ADME
Homo sapiens = organism: Homo sapiens; experiment: Inhibition of sodium channel (unknown origin) at 10 uM by patch clamp assay
[16] = Cmax in BALB/c mouse at 10 mg/kg, po; type: ADME, organism-based; set-up: dose 10 mg/kg, route oral; conditions: in vivo
[17] = Tmax in BALB/c mouse at 10 mg/kg, po; type: ADME, organism-based; conditions: in vivo
[18] = Oral bioavailability in BALB/c mouse at 10 mg/kg; type: ADME, organism-based; conditions: in vivo
[19] = AUC in BALB/c mouse at 2 mg/kg, iv; type: ADME, organism-based; conditions: in vivo
[20] = Clearance in BALB/c mouse at 2 mg/kg, iv; type: ADME, organism-based; conditions: in vivo
[21] = Tmax in Sprague-Dawley rat at 10 mg/kg, po; type: ADME, organism-based; conditions: in vivo
[22] = Half life in Sprague-Dawley rat at 10 mg/kg, po; type: ADME, organism-based; conditions: in vivo
[23] = Oral bioavailability in Sprague-Dawley rat at 10 mg/kg; type: ADME, organism-based; conditions: in vivo
[24] = Clearance in Sprague-Dawley rat at 2 mg/kg, iv; type: ADME, organism-based; conditions: in vivo
[25] = Volume of distribution at steady state in Sprague-Dawley rat at 2 mg/kg, iv; type: ADME, organism-based; conditions: in vivo, read-out: Vdss
Oryctolagus cuniculus = experiment: Cardiotoxicity in rabbit assessed as increase in heart rate at >3 mg/kg; type: toxicity, organism-based; conditions: in vivo
Rattus norvegicus = experiment: Toxicity in rat assessed as mortality at 200 mg/kg; type: organism-based; conditions: in vivo
[26] = molecular target: Rho-associated protein kinase 1 (Homo sapiens, UniProt Q13464); experiment: Inhibition of Rho-associated protein kinase 1 (unknown origin)
[27] = molecular target: Serine/threonine-protein kinase STK11 (Homo sapiens) (UniProt Q15831); experiment: Inhibition of wild-type human full length LKB1 (M1 to Q433 residues) expressed in bacterial expression system assessed as residual activity at 50 nM by Kinomescan method relative to control
[28] = molecular target: Serine/threonine-protein kinase DCLK2 (Homo sapiens) (UniProt Q8N568); experiment: Inhibition of wild-type human partial length DCAMKL2 (K273 to V664 residues) expressed in bacterial expression system assessed as residual activity at 50 nM by Kinomescan method relative to control
[29] = molecular target: Mitogen-activated protein kinase kinase kinase 1 (Homo sapiens) (UniProt Q13233); experiment: Inhibition of wild-type human partial length MAP3K1 (L1202 to W1512 residues) expressed in mammalian expression system assessed as residual activity at 50 nM by Kinomescan method relative to control
[30] = molecular target: Serine/threonine-protein kinase 16 (Homo sapiens) (UniProt O75716); experiment: Inhibition of wild-type human partial length STK16 (G11 to I305 residues) expressed in bacterial expression system assessed as residual activity at 50 nM by Kinomescan method relative to control
[31] = molecular target: Casein kinase I isoform alpha (Homo sapiens) (UniProt P48729); experiment: Inhibition of wild-type human partial length CK1A (M1 to L450 residues) expressed in mammalian expression system assessed as residual activity at 50 nM by Kinomescan method relative to control
[32] = molecular target: Dual specificity tyrosine-phosphorylation-regulated kinase 1B (Homo sapiens) (UniProt Q9Y463); experiment: Inhibition of wild-type human full length DYRK1B (M1 to S629 residues) expressed in bacterial expression system assessed as residual activity at 50 nM by Kinomescan method relative to control
[33] = molecular target: Serine/threonine-protein kinase NIM1 (Homo sapiens) (UniProt Q8IY84); experiment: Inhibition of wild-type human partial length NIM1 (Q44 to N355 residues) expressed in mammalian expression system assessed as residual activity at 50 nM by Kinomescan method relative to control
[34] = molecular target: Serine/threonine-protein kinase PAK 6 (Homo sapiens) (UniProt Q9NQU5); experiment: Inhibition of wild-type human partial length PAK6 (N298 to C681 residues) expressed in bacterial expression system assessed as residual activity at 50 nM by Kinomescan method relative to control
[35] = test system: Casein kinase I isoform alpha-like; experiment: Inhibition of CK1A2 (unknown origin) assessed as residual activity at 50 nM by Kinomescan method relative to control; conditions: Homo sapiens
[36] = test system: Ribosomal protein S6 kinase alpha-2; experiment: Inhibition of wild-type human partial length N-terminal RSK3 kinase domain 1 (M1 to Q385 residues) expressed in bacterial expression system assessed as residual activity at 50 nM by Kinomescan method relative to control

SNF-related serine/threonine-protein kinase (Homo sapiens), sequence (Q9NRH2 whole entry, the tested form may be a part): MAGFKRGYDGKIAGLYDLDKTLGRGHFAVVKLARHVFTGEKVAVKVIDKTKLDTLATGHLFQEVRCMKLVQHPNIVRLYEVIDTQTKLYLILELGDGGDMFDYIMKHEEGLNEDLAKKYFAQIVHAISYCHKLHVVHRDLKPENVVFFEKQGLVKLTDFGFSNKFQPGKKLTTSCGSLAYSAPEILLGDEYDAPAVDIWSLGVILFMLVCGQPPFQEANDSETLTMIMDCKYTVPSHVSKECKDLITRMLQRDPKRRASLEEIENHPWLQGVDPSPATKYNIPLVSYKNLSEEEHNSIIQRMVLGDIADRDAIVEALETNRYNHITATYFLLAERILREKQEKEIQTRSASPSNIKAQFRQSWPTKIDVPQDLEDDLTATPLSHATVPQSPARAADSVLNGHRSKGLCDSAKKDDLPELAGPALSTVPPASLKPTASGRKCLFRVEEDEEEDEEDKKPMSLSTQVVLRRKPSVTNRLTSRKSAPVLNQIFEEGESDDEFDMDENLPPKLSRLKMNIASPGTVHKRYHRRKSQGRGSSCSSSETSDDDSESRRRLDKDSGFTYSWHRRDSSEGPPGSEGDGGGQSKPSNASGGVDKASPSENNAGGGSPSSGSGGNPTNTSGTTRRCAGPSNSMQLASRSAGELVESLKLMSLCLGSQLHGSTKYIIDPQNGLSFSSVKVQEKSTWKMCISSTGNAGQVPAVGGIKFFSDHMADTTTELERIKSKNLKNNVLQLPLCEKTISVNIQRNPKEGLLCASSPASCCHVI
T1 sequence (Q12809 whole entry): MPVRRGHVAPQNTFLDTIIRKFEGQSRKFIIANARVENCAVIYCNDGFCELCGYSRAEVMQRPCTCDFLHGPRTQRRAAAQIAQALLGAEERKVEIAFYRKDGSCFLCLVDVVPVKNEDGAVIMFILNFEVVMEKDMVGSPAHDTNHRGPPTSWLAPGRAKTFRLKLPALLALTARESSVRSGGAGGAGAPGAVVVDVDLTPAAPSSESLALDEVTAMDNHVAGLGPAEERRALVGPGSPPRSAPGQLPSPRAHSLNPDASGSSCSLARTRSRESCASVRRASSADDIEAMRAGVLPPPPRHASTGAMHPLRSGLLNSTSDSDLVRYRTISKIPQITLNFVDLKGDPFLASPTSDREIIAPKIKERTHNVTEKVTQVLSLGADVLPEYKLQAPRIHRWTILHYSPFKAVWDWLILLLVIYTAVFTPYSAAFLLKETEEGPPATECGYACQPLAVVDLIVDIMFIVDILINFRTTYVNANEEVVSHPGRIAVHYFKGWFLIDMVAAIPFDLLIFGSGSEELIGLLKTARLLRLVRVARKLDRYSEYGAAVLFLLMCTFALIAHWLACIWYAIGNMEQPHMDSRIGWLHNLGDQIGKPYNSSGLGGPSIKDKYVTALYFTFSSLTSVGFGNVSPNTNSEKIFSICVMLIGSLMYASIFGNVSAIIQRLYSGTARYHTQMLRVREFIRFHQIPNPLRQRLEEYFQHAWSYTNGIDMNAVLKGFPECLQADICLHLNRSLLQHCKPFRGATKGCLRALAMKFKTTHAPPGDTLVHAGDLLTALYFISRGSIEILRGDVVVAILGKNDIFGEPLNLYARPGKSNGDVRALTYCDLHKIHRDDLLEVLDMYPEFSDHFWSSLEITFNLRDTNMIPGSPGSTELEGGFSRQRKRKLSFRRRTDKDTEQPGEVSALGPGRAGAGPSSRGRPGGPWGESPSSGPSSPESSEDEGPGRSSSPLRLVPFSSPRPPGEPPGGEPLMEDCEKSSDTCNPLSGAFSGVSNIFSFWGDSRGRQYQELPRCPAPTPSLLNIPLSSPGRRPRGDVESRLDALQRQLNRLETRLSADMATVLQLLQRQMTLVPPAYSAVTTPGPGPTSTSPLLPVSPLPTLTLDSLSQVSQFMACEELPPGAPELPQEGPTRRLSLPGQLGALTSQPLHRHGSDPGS
Serine/threonine-protein kinase 33 (Homo sapiens), sequence (Q9BYT3 whole entry, looked up, the tested form may be a part): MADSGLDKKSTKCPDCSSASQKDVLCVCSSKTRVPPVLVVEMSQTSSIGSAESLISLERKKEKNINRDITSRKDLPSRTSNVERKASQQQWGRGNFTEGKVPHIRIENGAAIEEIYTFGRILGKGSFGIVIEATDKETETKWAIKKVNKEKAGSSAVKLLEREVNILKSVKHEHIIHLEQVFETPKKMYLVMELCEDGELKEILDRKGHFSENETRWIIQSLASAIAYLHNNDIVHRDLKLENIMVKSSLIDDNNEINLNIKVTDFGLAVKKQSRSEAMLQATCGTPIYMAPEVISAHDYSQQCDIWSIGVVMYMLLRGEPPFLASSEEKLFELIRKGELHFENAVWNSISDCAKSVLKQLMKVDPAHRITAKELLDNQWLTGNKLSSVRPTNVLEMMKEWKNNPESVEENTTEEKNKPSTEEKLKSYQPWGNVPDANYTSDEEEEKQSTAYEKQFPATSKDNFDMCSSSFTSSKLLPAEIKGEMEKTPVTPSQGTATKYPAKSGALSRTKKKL
Mitogen-activated protein kinase 11 (Homo sapiens), sequence (Q15759 whole entry, the tested form may be a part, canonical isoform): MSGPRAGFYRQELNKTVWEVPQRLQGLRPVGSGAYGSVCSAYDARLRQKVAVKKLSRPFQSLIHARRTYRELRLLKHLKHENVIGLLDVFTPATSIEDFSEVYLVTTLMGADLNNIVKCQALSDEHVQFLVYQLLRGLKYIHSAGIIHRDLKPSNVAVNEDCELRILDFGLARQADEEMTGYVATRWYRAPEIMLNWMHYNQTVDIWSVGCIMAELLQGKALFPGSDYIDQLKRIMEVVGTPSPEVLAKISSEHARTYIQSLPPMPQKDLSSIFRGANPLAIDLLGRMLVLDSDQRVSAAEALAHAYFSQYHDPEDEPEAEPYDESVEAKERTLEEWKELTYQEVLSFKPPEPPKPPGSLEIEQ
Dual specificity tyrosine-phosphorylation-regulated kinase 1B (Homo sapiens), sequence (Q9Y463 whole entry, looked up, the tested form may be a part): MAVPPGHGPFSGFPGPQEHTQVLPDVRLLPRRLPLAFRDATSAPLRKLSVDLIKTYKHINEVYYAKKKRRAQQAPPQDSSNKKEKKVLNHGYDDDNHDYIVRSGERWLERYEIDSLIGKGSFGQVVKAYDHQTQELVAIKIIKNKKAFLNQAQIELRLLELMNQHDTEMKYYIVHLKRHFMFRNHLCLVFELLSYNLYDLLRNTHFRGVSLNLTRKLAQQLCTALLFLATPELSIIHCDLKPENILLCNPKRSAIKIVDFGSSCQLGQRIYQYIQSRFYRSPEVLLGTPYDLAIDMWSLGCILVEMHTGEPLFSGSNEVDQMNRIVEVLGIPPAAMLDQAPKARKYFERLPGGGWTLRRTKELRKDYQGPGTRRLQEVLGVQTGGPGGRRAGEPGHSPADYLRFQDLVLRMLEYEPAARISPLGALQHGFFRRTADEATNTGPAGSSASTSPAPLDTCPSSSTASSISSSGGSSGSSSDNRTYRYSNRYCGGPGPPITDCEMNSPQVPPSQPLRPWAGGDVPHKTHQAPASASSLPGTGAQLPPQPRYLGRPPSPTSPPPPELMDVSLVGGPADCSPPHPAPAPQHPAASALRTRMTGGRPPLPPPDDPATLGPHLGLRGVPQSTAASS
Casein kinase I isoform alpha (Homo sapiens), sequence (P48729 2-337 limits assumed): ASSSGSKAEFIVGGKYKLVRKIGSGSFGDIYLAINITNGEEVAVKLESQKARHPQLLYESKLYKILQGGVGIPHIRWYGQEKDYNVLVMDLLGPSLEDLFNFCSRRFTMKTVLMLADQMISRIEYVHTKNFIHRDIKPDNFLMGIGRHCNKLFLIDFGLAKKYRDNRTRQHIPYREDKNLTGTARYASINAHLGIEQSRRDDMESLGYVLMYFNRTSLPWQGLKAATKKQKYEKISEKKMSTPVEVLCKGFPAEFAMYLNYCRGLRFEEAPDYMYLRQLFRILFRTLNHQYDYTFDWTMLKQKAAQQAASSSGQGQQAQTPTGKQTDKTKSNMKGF
Nuclear receptor subfamily 1 group I member 2, sequence (O75469 whole entry): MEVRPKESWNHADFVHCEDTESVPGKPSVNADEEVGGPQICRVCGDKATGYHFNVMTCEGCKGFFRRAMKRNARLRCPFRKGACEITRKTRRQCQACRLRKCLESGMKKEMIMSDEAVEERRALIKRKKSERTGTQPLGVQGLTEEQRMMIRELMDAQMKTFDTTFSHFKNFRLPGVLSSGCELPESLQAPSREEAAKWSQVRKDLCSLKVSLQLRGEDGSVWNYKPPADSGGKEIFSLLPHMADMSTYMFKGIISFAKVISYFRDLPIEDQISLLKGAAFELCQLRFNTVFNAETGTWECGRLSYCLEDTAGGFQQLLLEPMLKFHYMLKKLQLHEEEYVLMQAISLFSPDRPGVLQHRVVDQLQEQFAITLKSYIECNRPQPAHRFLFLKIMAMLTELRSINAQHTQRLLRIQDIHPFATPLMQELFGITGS
Serine/threonine-protein kinase PAK 6 (Homo sapiens), sequence (Q9NQU5 whole entry, looked up, the tested form may be a part, canonical isoform): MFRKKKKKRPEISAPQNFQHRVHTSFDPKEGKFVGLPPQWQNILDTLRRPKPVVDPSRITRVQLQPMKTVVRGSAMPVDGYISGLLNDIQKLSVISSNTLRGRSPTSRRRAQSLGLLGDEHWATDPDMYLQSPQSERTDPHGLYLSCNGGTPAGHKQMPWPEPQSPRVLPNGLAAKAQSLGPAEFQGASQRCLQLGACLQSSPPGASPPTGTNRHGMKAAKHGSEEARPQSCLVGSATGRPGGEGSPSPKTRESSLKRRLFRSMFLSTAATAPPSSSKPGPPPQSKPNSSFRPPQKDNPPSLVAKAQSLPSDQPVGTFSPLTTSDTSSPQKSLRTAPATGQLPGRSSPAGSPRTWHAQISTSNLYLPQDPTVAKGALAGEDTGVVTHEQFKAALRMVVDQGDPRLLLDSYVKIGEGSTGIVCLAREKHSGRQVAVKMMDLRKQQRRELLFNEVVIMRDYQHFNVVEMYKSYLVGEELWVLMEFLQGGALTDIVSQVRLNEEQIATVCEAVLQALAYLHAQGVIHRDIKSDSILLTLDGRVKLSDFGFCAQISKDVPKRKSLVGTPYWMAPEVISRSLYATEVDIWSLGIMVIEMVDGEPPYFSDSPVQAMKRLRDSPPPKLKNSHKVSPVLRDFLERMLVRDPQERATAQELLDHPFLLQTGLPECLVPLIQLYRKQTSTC

With `CC1(C)[C@H](Nc2c(C(N)=O)cnn3cc(-c4ccccc4)cc23)CC[C@]1(C)N` the CL (Mus musculus [1]) was 32%, the clearance [2] was 29 mL/min/kg and the Activity (Mus musculus [3]) was “Active”. The Activity (Mus musculus [4]) was “inactive”, the Activity (Mus musculus [5]) was “Toxic” and the Activity [6] was 78%. The Activity [7] was 95%, the Activity [8] was 100% and the Activity [9] was 100%.
With `COc1ccc(-c2cc3c(N[C@@H]4CC[C@](C)(N)C4(C)C)c(C(N)=O)cnn3c2)cn1` the “Ratio IC50” value [10] was 130, the pIC50 [11] was 5.52 and the pIC50 [12] was under 4.10. For the same compound, the remaining at 10 min [13] was 95%, the Cmax [14] was 1100 nM and the pEC50 [15] was under 4.77. The inhibition (Homo sapiens) was 71%, the Cmax [16] was 1100 nM and the Tmax [17] was 4 h. The bioavailability [18] was 73%, the AUC [19] was 4.9 µM·h and the clearance [20] was 16.7 mL/min/kg. The Tmax [21] was 7.3 h, the half-life [22] was 12.2 h and the bioavailability [23] was 44%. For the same compound, the clearance [24] was 14.1 mL/min/kg, the Vd [25] was 11.5 L/kg and the Activity (Oryctolagus cuniculus) was “Toxic”. The Activity (Rattus norvegicus) was “Toxic”, the pIC50 [26] was 7.02 and the Activity [27] was 100%. It also gave an Activity [6] of 80%, an Activity [28] of 100% and an Activity [29] of 98%. For the same compound, the Activity [30] was 87%, the Activity [31] was 84% and the Activity [32] was 100%. The Activity [33] was 90%, the Activity [34] was 87% and the Activity [8] was 92%. It also gave an Activity [9] of 100%, an Activity [35] of 97% and an Activity [36] of 87%.
